How the values were obtained:
[1] = system: tomato plants ('Moneymaker'); assay: Tomato plant survival under extreme drought; format: in vivo
Experimental: (§1) For each drought or limited water experiment 480 seeds (of either pepper, barley, tomato, cucumber or corn) were sown, producing 384 plants in 512 cm^3 pots (4 plants per pot). Plants were grown under chamber conditions at 21° C. for 3 weeks. Then, the plants were moved to a greenhouse, where average temperature was 25° C. to 28° C. Spray and irrigation treatments as described herein were done when the plants had two extended leaves and the next pair of leaves were coming up.
(§2) Treatments: Twelve pots (containing 48 plants) were irrigated with 40 ml of either: water, 0.1 g/L TMAO di-hydrate solution, 1.0 g/L TMAO di-hydrate solution, or 5.5 g/L TMAO di-hydrate solution. Another set of 12 pots containing 48 plants were sprayed with 40 ml of either water (3.3 ml in average per pot), a solution containing 0.1 g/L TMAO di-hydrate solution, 1.0 g/L TMAO di-hydrate, or 5 g/L, or 10 g/L TMAO di-hydrate. Further sets of 12 pots containing 48 plants were both sprayed with each initial solution TMAO di-hydrate solution and further irrigated with the same TMAO di-hydrate solutions used in the control water sprayed plants. All pots were also watered with 40 ml of water. The sprayed plants were watered with the same volume of water as the “irrigated plants). The pots were located on plastic glass to maintain constant moisture and to avoid liquid spillage during watering. Trays containing the pots were located on greenhouse tables. The distribution of the trays on the table and the position on the pots in the tray was changed every week to avoid position effects.
After the treatments described above, the plants were not watered until the pots completely lost their moisture, taking about 4 to 8 days depending on the season, at which point the plants were extremely wilted for the extreme drought experiments. The plants were then watered once with solutions containing the different amounts of TMAO di-hydrate (0.1 g/L, 1.0 g/L, 5 g/L, or 10 g/L) or just water, after which the plants were left to lose their moisture completely again for three consecutive cycles of watering after wilting. For the “extreme drought” experiments plants were allowed to wilt severely before watering and then the plant survival rate was recorded and analyzed.
TMAO di-hydrate applied exogenously, which increases the endogenous content of TMAO as if the plants were overexpressing an FMO protein at least 4 times, increases tomato plant survival under extreme drought conditions, where plants were allowed to fully wilt after three water-wilt cycles. Moneymaker tomato seeds were sown, grown and treated as described above. No statistical differences between modes of application (sprayed or TMAO di-hydrate watered) were observed on this experiment.

[2] = system: tomato plants ('Moneymaker'); assay: Tomato stem size under limited water irrigation; format: in vivo
Experimental: as §1, §2
After the treatments described above, for the “limited water” experiments plants were watered with 20 ml of water or solution instead of 40 ml when the first plants started to wilt. The stem length was recorded as analyzed for the limited water experiments in which the plants are watered with 50-30% of the water that the plant requires.
TMAO di-hydrate applied exogenously which increases the endogenous content of TMAO as if the plants were overexpressing an FMO protein at least 4 times increases plant stem size in tomato under limited water irrigation. ‘Moneymaker’ tomato seeds were sown, grown and treated as described.

[3] = system: barley plants ('Bomi'); assay: Barley dry weight under drought; format: in vivo
Experimental: as §1, §2
After the treatments described above, the plants were not watered until the pots completely lost their moisture, taking about 4 to 8 days depending on the season, at which point the plants were extremely wilted for the extreme drought experiments. […] For the “extreme drought” experiments plants were allowed to wilt severely before watering and then the plant survival rate was recorded and analyzed. […]

[4] = TMAO accumulation in pepper leaves after spray (NMR); conditions: 1 g/l spray
Experimental: TMAO content in plants was determined by harvesting three leaves per treatment and freezing them in liquid nitrogen before the Nuclear Magnetic Resonance spectroscopy (NMR) determination. At least three independent plants were treated per experiment. TMAO content in plant extracts was quantified by NMR spectrometry using a Bruker Advance DRX 500 MHz spectrometer equipped with a 5 mm inverse triple resonance probe head. A known concentration of [3-(trimethylsilyl) propionic-2,2,3,3-d4 acid sod. salt, (TSP-d4)] was used as internal reference. All experiments were conducted at 298K and the data was acquired and processed using the same parameters. Spectra processing was performed on PC station using Topspin 2.0 software (Bruker).
‘Murano’ pepper seeds and ‘Bomi’ barley seeds were sown and grown as described above. Control plants (six weeks old) were sprayed with water and pepper treated plants were sprayed with 1 g/l of TMAO di-hydrate while barley plants were sprayed with 1 g/l of TMAO di-hydrate formulated with 0.1% of C8-C10 Alkylpolysaccharide. Leaves were harvested and TMAO was determined by NMR. The percentage of TMAO increase compared to untreated controls was determined for each time point.

[5] = TMAO accumulation in barley leaves after spray (NMR); format: in vivo; conditions: 1 g/l spray formulated with 0.1% C8-C10 Alkylpolysaccharide, 1 day post spray
Experimental: At least three independent plants were treated per experiment.
Leaves were harvested and TMAO was determined by NMR.

C[N+](C)(C)[O-].O.O [TMAO di-hydrate, trimethylamine N-oxide di-hydrate]
appearance of treated plants compared to untreated control ([1]; irrigated with 5.5 g/L, 24 hours after drought recovery (FIG. 9)): extremely healthy
SURVIVAL RATE (%) ([1]; irrigation 0.1 g/L, initial spray 0.1 g/L): 12.5 ± 8.5%
SURVIVAL RATE (%) ([1]; irrigation 0.1 g/L, initial spray 1 g/L): 41.6 ± 8.5%
SURVIVAL RATE (%) ([1]; irrigation 0.1 g/L, initial spray 5 g/L): 68.9 ± 8.5%
SURVIVAL RATE (%) ([1]; irrigation 0.1 g/L, initial spray water): 16.6 ± 8.5%
SURVIVAL RATE (%) ([1]; irrigation 1 g/L, initial spray 0.1 g/L): 0.0 ± 7.5%
SURVIVAL RATE (%) ([1]; irrigation 1 g/L, initial spray 1 g/L): 29.1 ± 7.5%
SURVIVAL RATE (%) ([1]; irrigation 1 g/L, initial spray 5 g/L): 33.3 ± 7.5%
SURVIVAL RATE (%) ([1]; irrigation 1 g/L, initial spray water): 4.1 ± 7.5%
SURVIVAL RATE (%) ([1]; irrigation 5 g/L, initial spray 0.1 g/L): 12.5 ± 8.0%
SURVIVAL RATE (%) ([1]; irrigation 5 g/L, initial spray 1 g/L): 16.6 ± 8.0%
SURVIVAL RATE (%) ([1]; irrigation 5 g/L, initial spray 5 g/L): 50.0 ± 8.0%
SURVIVAL RATE (%) ([1]; irrigation 5 g/L, initial spray water): 8.3 ± 8.0%
SURVIVAL RATE (%) ([1]; irrigation all regimes, initial spray 0.1 g/L): 12.5 ± 4.1%
SURVIVAL RATE (%) ([1]; irrigation all regimes, initial spray 1 g/L): 37.5 ± 4.1%
SURVIVAL RATE (%) ([1]; irrigation all regimes, initial spray 5 g/L): 56.6 ± 4.1%
SURVIVAL RATE (%) ([1]; irrigation water, initial spray 0.1 g/L): 29.1 ± 9.1%
SURVIVAL RATE (%) ([1]; irrigation water, initial spray 1 g/L): 62.5 ± 9.1%
SURVIVAL RATE (%) ([1]; irrigation water, initial spray 5 g/L): 74.2 ± 9.1%
AVERAGE STEM SIZE (cm) ([2]; initial treatment 0.1 g/L, irrigations 1 g/L): 12.32 ± 0.56 cm
AVERAGE STEM SIZE (cm) ([2]; initial treatment 0.1 g/L, irrigations water): 11.06 ± 0.55 cm
AVERAGE STEM SIZE (cm) ([2]; initial treatment 1 g/L, irrigations 1 g/L): 13.77 ± 0.55 cm
AVERAGE STEM SIZE (cm) ([2]; initial treatment 1 g/L, irrigations water): 11.59 ± 0.55 cm
AVERAGE STEM SIZE (cm) ([2]; initial treatment 5 g/L, irrigations 1 g/L): 14.6 ± 0.55 cm
AVERAGE STEM SIZE (cm) ([2]; initial treatment 5 g/L, irrigations water): 14.2 ± 0.56 cm
AVERAGE STEM SIZE (cm) ([2]; initial treatment water, irrigations 1 g/L): 12.97 ± 0.55 cm
AVERAGE DRY weight ± S.E. ([3]; initial treatment 1 g/L sprayed, irrigations water, three cycles of wilt-watering): 1205.4 ± 60.37 mg
AVERAGE DRY weight ± S.E. ([3]; initial treatment 1 g/L watered, irrigations water, three cycles of wilt-watering): 1371.4 ± 66.13 mg
AVERAGE DRY weight ± S.E. ([3]; no initial treatment, irrigations 1 g/L): 1216.1 ± 33.44 mg
TMAO % Control ([4]; 1 day post spray): 529%
TMAO (μM) in leaves ([4]; 1 day post spray): 1755.2 µM
TMAO % Control ([4]; 10 days post spray): 373%
TMAO (μM) in leaves ([4]; 10 days post spray): 1237.6 µM
TMAO % Control ([4]; 20 days post spray): 286%
TMAO (μM) in leaves ([4]; 20 days post spray): 948.9 µM
TMAO % Control ([4]; 30 days post spray): 135%
TMAO (μM) in leaves ([4]; 30 days post spray): 449.2 µM
TMAO % Control ([4]; 40 days post spray): 213%
TMAO (μM) in leaves ([4]; 40 days post spray): 709.4 µM
TMAO % Control [5]: 822%
TMAO (μM) in leaves [5]: 4633.2 µM

Reference: patent publication US20160237450A1, “METHOD FOR ENHANCING DROUGHT TOLERANCE IN PLANTS” (Plant Response Biotech S.L., priority 2015, published 2016)
